Measurements from the NIST ThermoML archive (doi:10.1021/je4007184).
Numbers after ± are expanded uncertainties.

Key:
[1] = refractive index (Na D-line) (dimensionless); conditions: 298.15 K; 101.33 kPa; Liquid; Standard Abbe refractometry
[2] = Boiling temperature at pressure P; conditions: 101 kPa; Liquid; Ebulliometric method (Recirculating still)
[3] = 298.15 K; 101.33 kPa; Liquid; Pycnometric method

| SMILES | refractive index [1] | Boiling temperature at pressure P [2] [°C] | mass density [3] [kg/m3] |
| --- | --- | --- | --- |
| CC(C)CCO [3-methylbutan-1-ol] | 1.4155 ± 0.0005 | 131.1 ± 0.4 | 811.04 ± 0.6 |
| CCCCCO [pentan-1-ol] | 1.4078 ± 0.0005 | 137.8 ± 0.4 | 810.12 ± 0.6 |
| CCCC(C)O (configuration not stated) [pentan-2-ol] | 1.4048 ± 0.0005 | 119.1 ± 0.4 | 806.57 ± 0.61 |
| CCCOC(C)=O [propyl ethanoate] | 1.3821 ± 0.0005 | 101.5 ± 0.4 | 882.8 ± 0.68 |
